Assay results: publication PMC6115017, “High-content imaging assay to evaluate Toxoplasma gondii infection and proliferation: A multiparametric assay to screen new compounds” (PLoS ONE, 2018)
Like-named read-outs stand apart in the source and are kept apart here.

Assays:
[1] = tested on: T. gondii proliferation (RH-YFP2 parasites in HFF); assay: High Content Imaging (HCI) assay of T. gondii proliferation in HFF; conditions: for inhibition at 10 µM / IC50 / inhibition at 20 µM: Toxoplasma gondii; for SI selectivity index: CV50/IC50: CV50 (HFF)/IC50 (T. gondii); for Parasite proliferation inhibition (PPI): tested at 10 μM, HFF infected with T. gondii, normalised to DMSO and 20 μM pyrimethamine
Description: The parasites were collected just after host cell lysis, centrifuged at 800 g for 5 min, suspended in D10 medium, and counted.
A pyrimethamine (Sigma-Aldrich) stock solution was prepared at 10 mM in DMSO and was used at the final concentration of at 20 μM as a positive control for anti-Toxoplasma activity. Forty-six molecules were tested to determine their anti-Toxoplasma activity. Each molecule was prepared as a 10 mM stock solution in DMSO and tested at 10 μM. The hits were then further tested at the dilutions 0.01 to 100 μM.
(§1) Cells were seeded at a density of 1.10^4 cells per well into 96-well plates, and allowed to grow for 48 h at 37°C and 5% CO2 to obtain sub-confluent HFF monolayers. Cells were then infected with 4.10^4 parasites per well. The plates were centrifuged for 1 min at 200 g and placed at 37°C, 5% CO2, for 2 h. After 3 washes in PBS, infected cells were incubated at 37°C, 5% CO2, for 30 hours with 200 μL of DMEM complete medium alone or supplemented with anti-Toxoplasma molecules, i.e. the reference drug pyrimethamine, or the tested molecules. These tested drugs were incubated at 10 μM in screening hit assays.
Imaging of 96-well plates was performed using a high content imaging system (Olympus ScanR). […] Twenty fields per well were imaged.
The acquired images were analyzed using the ScanR analysis software. This analysis aimed to identify the parasitophorous vacuoles (V), the parasites’ nuclei (P) and host cells’ nuclei (C).
A fixed threshold was set up (Fig 1C) and a watershed algorithm was applied to split apart two vacuoles that associated with one another (Fig 1C, white arrow). A binary mask was obtained (Fig 1D) and objects on the image border were excluded. Segmentation of the parasites’ nuclei (Fig 1E–1G, arrowhead) was performed with the Hoechst fluorescence pixels (Fig 1E). In order to properly separate parasites’ nuclei one from another, an important rolling ball background subtraction filter was applied (5 pixels). Both the brightness and the contrast of filtered images were adjusted manually. Parasites were selected with an edge segmentation algorithm with a minimum object size of 10 pixels and a maximum object size of 30 pixels (Fig 1F). The obtained binary image allowed a clear detection of the parasites (Fig 1G).
The vacuole mask was merged with that of the parasites to identify parasites inside their parasitophorous vacuole and to exclude extracellular parasites or host cell nuclei (Fig 1H).

[2] = tested on: Human foreskin fibroblasts (HFF) host cells; assay: Host cell viability in the HCI assay (host cell nuclei count); conditions: 0.037 to 81 μM, 30 h
Description: as §1
• the T. gondii infection rate (V/C), calculated as the ratio between the number of parasitophorous vacuoles per well (V) divided by the number of host cells per well (C); • the T. gondii proliferation index (P/V), calculated as the ratio between the number of parasites per well (P) divided by the number of parasitophorous vacuoles per well; • the intra-vacuolar distribution of parasites (percentage of parasitophorous vacuoles containing either 1, 2, 4, or 8 parasites); • the parasite proliferation inhibition (PPI), calculated with the following formula: PPI=(1−((P/V[mol]−P/V[Pyr])/(P/V[DMSO]−P/V[Pyr])))x100 where P/V[Pyr] was the average proliferation rate of Toxoplasma in the presence of 20 μM pyrimethamine, P/V[DMSO], the average proliferation rate of Toxoplasma in the presence of DMSO only and P/V[mol], the average proliferation rate of Toxoplasma in the presence of the tested molecule; • the cell viability (CV): (C [mol] / C[DMSO])x100, where C[mol] was the number of host cell nuclei per well containing the tested molecule and C[DMSO], the number of host cell nuclei per well containing the DMSO control.
A selectivity index activity (SI) was calculated as SI = CV50/IC50.

[3] = tested on: RH-YFP2 parasites in HFF; assay: [3H]-uracil incorporation assay of T. gondii proliferation; format: cell-based; conditions: Toxoplasma gondii; 20 μM pyrimethamine, 30 h in HFF; 100% proliferation = without pyrimethamine; 3 experiments; read-out: inhibition of parasite proliferation as determined by [3H]-uracil incorporation assay
Description: The intracellular growth of RH-YFP2 parasites in HFF was monitored by selective incorporation of [^3H]-uracil, as previously described. […] After several washes to eliminate extracellular parasites, infected cells were cultured for 30 h with […] of [^3H]-uracil per well. Monolayers were washed 3 times in phosphate buffered saline (PBS), disrupted with 500 μL of lysis/scintillation solution (Optiphase Supermix, Perkin Elmer, France) and their radioactivity was measured by liquid scintillation counting using a Wallac MicroBeta TriLux (Perkin Elmer) calibrated for [^3H]-uracil. Two experimental replicates were performed in each of the 3 separate experiments.

[4] = tested on: Toxoplasma gondii parasites in HFF; assay: Manual microscopic counting of T. gondii proliferation; conditions: 30 h, read-out: inhibition of parasite proliferation as determined by manual microscopic observations
Description: as §1
Parasitophorous vacuoles, parasites and host cells were manually counted on the set of images provided by the Olympus IX81 microscope. Three different experiments were performed.
After 30 h of parasite culture in HFF, the total numbers of parasitophorous vacuoles and parasites were counted in wells with or without 20 μM pyrimethamine from 3 different experiments. The 100% proliferation corresponds to the number of parasites per well without pyrimethamine.

[5] = 30 h, read-out: Parasite proliferation inhibition (PPI)
[6] = 30 h, read-out: IC50: concentration to inhibit 50% of T. gondii proliferation

O=C1/C(=C/c2ccc(Br)cc2)Oc2cc(O)cc(O)c21 [AU7]
inhibition at 10 µM [1, 5]: 0%

COc1cccc(OC)c1/C=C/C(=O)c1c(OC)cccc1OC [CH1]
inhibition at 10 µM [1, 5]: 0%

COc1cccc(OC)c1/C=C/C(=O)c1ccccc1 [CH4]
inhibition at 10 µM [1, 5]: 29%

COc1ccc(C(=O)/C=C/c2ccc(OC)c(OC)c2)c(O)c1 [CH5]
inhibition at 10 µM [1, 5]: 3%

COc1ccc(C(=O)/C=C/c2cc(OC)c(OC)c(OC)c2)c(O)c1 [CH9]
CV50: concentration to inhibit the viability of 50% of host cells [2]: >81 µM | SI selectivity index: CV50/IC50 [1]: >12.3 | IC50 [1, 6]: 6600 ± 1500 nM | inhibition at 10 µM [1, 5]: 93% | Parasite proliferation inhibition (PPI) ([1]; 30 h): high proliferation inhibition activity

COc1cc(/C=C/C(=O)c2ccc(OC)cc2O)cc(OC)c1 [CH12]
inhibition at 10 µM [1, 5]: 73%

COc1ccc(-c2nnc(-c3ccccc3OC)o2)cc1 [DO3]
CV50: concentration to inhibit the viability of 50% of host cells [2]: >81 µM | SI selectivity index: CV50/IC50 [1]: >3 | IC50 [1, 6]: 27700 ± 6200 nM | inhibition at 10 µM [1, 5]: 81% | Parasite proliferation inhibition (PPI) ([1]; 30 h): high proliferation inhibition activity

COc1ccc(-c2nnc(-c3ccc(OC)cc3)o2)cc1 [DO4]
inhibition at 10 µM [1, 5]: 0%

COc1ccccc1-c1nnc(-c2ccccc2)o1 [DO6]
inhibition at 10 µM [1, 5]: 0%

COc1ccc(-c2nnc(-c3ccccc3)o2)c(OC)c1 [DO8]
inhibition at 10 µM [1, 5]: 0%

c1ccc(-c2nnc(-c3ccccc3)o2)cc1 [DO9]
inhibition at 10 µM [1, 5]: 0%

Oc1ccc(-c2nnc(-c3ccccc3)o2)cc1 [DO10]
inhibition at 10 µM [1, 5]: 0%

Oc1ccc(-c2nnc(-c3ccccc3)o2)c(O)c1 [DO11]
inhibition at 10 µM [1, 5]: 0%

Oc1ccccc1-c1nnc(-c2ccccc2)o1 [DO12]
inhibition at 10 µM [1, 5]: 5%

Oc1ccc(-c2nnc(-c3ccc(O)cc3O)o2)cc1 [DO13]
inhibition at 10 µM [1, 5]: 0%

Oc1ccc(-c2nnc(-c3ccc(O)cc3)o2)cc1 [DO14]
inhibition at 10 µM [1, 5]: 0%

CCc1nc(N)nc(N)c1-c1ccc(Cl)cc1 [pyrimethamine, reference compound]
inhibition at 20 µM [3]: 43.2% | inhibition at 20 µM [4]: 25% | CV50: concentration to inhibit the viability of 50% of host cells [2]: >81 µM | SI selectivity index: CV50/IC50 [1]: >202 | IC50 ([1]; 24 h, read-out: IC50 of pyrimethamine, reproducibility): 600 nM | IC50 [1, 6]: 400 ± 30 nM | inhibition at 20 µM [1, 5]: 100% | inhibition at 20 µM ([1]; 30 h, read-out: inhibition of parasite proliferation as determined by HCI): 25.2% | IC50 ([1]; 72 h, read-out: IC50 of pyrimethamine, reproducibility): 440 nM
